Experimental data from patent US9475789B2, “Use of polyenylpyrrole derivatives for treating inflammation” (WELLHEAD BIOLOGICAL TECHNOLOGY CORP., priority 2014, dated 2016).
Entries after “also recorded” stand apart in the source; their conditions may differ.

Assays:
TNF-α = TNF-α ELISA, LPS-activated J774A.1 macrophages; assay type: cell-based, murine; settings: J774A.1 cells, LPS 1 μg/ml 24 h
Procedure: (A) J774A.1 macrophages (4×10^5/ml), (B) peritoneal macrophages (4×10^5/ml), and (C) JAWSII dendritic cells (4×10^5/ml) were incubated with compound 1h or DMSO for 30 min followed by stimulating with LPS (1 μg/ml) for 24 h, then IL-6 and TNF-α concentration in culture medium were assayed by ELISA. The data are expressed as the mean±SD for three separate experiments. *, **, and *** indicate a significant difference at the level of p<0.05, p<0.01, p<0.001 respectively compared to LPS group.
The effects of tested samples on IL-1β, TNF-α and IL-6 production were measured by ELISA according to the manufacturer's instruction. In brief, 50 μl of biotinylated antibody reagent and 50 μl of supernatant were added to an anti-mouse IL-1β, TNF-α and IL-6 precoated stripwell plate, and incubated at room temperature for 2 h. After washing the plate three times with washing buffer, 100 μl of diluted streptavidin-HRP concentrate was added to each well and incubated at room temperature for 30 min. The washing process was repeated; then 100 μl of a premixed tetramethylbenzidine substrate solution was added to each well and developed at room temperature in the dark for 30 min. Following the addition of 100 μl of stop solution to each well to stop the reaction, the absorbance of the plate was measured by a microplate reader at 450 nm wavelength.

NLRP3 = experiment: Western blot of NLRP3, LPS-activated J774A.1 macrophages; assay type: cell-based, mouse; settings: compound 30 min, then LPS 6 h
Procedure: (A) J774A.1 macrophages (1×10^6/ml) and (B) peritoneal macrophages (1×10^5/ml) were incubated with compound 1h for 30 min followed by LPS (1 μg/ml) stimulating for 5.5 h, then the cells were stimulated with ATP (5 mM) for an additional 30 min. The IL-1β in the culture medium was measured by ELISA and the expression of active caspase-1 (p10) was measured by Western blot. In (C) and (D), J774A.1 macrophages (1×10^6/ml) were incubated with LPS (1 μg/ml) for 5.5 h, then cells were incubated with compound 1h for 30 min followed by stimulating with ATP (5 mM) for an additional 30 min. The IL-1β and IL-6 in the culture medium were measured by ELISA and the expression of active caspase-1 (p10) was measured by Western blot. In (E), J774A.1 macrophages (1×10^6/ml) were incubated with compound 1h for 30 min followed by LPS (1 μg/ml) stimulating for 6 h. The expression of NLRP3 and proIL-1β were measured by Western blot.
Whole cell lysates were separated by SDS-PAGE and electrotransferred to a PVDF membrane. The membranes were incubated in blocking solution—5% nonfat milk in phosphate buffered saline with 0.1% Tween 20—at room temperature for 1 h. Each membrane was incubated with a specific primary antibody at room temperature for 2 h. After washing three times in PBS with 0.1% Tween 20, the membrane was incubated with an HRP-conjugated secondary antibody directed against the primary antibody. […]

[1] = test system: LPS-induced NO generation in RAW 264.7 macrophages; experiment: NO inhibitory assay (Griess reaction) in LPS-activated macrophages; assay type: cell-based, murine
Procedure: In (A) and (C), cells (5×10^5/ml) were incubated with polyenylpyrrole derivatives or DMSO (vehicle) for 30 min followed by stimulating with LPS (1 μg/ml) for 24 h, then NO (A), IL-6 and TNF-α (C) concentration in culture medium were assayed by Griess reaction and ELISA, respectively. In (B), cells (5×10^5/ml) were pretreated with polyenylpyrrole derivatives or DMSO for 30 min followed by stimulating with LPS (1 μg/ml) for 24 h, then the protein expression of iNOS and COX-2 were assayed by Western blot. […] RAW 264.7 cells were seeded in 24-well plates at a density of 5×10^5 cells/ml, and then incubated with or without LPS (1 μg/ml) in the absence or presence of tested samples for 24 h. The effects of the tested samples on NO production were measured indirectly by analysis of nitrite levels using the Griess reaction.

ROS = experiment: Intracellular ROS production, ATP-activated J774A.1 macrophages; assay type: cell-based, murine
Procedure: In (A), J774A.1 macrophages (1×10^6/ml) were incubated with LPS (1 μg/ml) for 5.5 h and then incubated with compound 1 h ([…]), DPI (100 μM), or DMSO (vehicle) for 30 min followed by ATP (5 mM) stimulating for the indicated time, then ROS levels were measured by detection of the fluorescence intensity of the fluorophore carboxyl-DCF and expressed relative to those at time zero. In (B), J774A.1 macrophages (1×10^6/ml) were incubated with compound 1h (20 μM), DPI (100 μM), or DMSO (vehicle) for 30 min followed by LPS (1 μg/ml) stimulating for 5.5 h, then the cells were stimulated with ATP (5 mM) for the indicated time. The ROS levels were measured by detection of the fluorescence intensity of the fluorophore carboxyl-DCF and expressed relative to those at time zero. In (C), LPS-primed J774A.1 macrophages (1×10^6/ml) were incubated with compound 1h (20 μM) or DMSO (vehicle) for 30 min followed by ATP (5 mM) stimulating for 0-60 min, then the phosphorylation level of PKC-α was analyzed by Western blot.
Intracellular ROS stimulated by LPS was measured by detecting the fluorescence intensity of the 2′,7′-dichlorofluorescein diacetate (H2DCFDA) oxidized product (DCF) (Molecular Probes, Eugene, Oreg.). […]

In the case of O=c1cc(O)cc(/C=C/C=C/C=C/C=C/c2[nH]ccc2Cl)o1 [Compound 1h], the “secretion of TNF-α” value (TNF-α) is reported as “reduced”, the NLRP3 expression (NLRP3) is reported as “increased NLRP3 expression” and the EC50 ([1]; Mus musculus, RAW264.7, 50% inhibition of the LPS-induced NO generation, RAW 264.7, LPS 1 μg/ml, 24 h, read-out: ED50 (the source's name)) is reported as 15 ± 2 µM. The “production of NO by LPS-activated cells” value ([1]; RAW 264.7, LPS 1 μg/ml 24 h, Griess reaction) was “decreased production; also recorded: decreased the production of NO by LPS-activated cells in a dose-dependent manner”, the “background level of NO” value ([1]; compound alone, no LPS, RAW 264.7, data not shown) was “did not alter” and the “ATP-induced ROS production” value (ROS; J774A.1, compound 1h 20 μM added before LPS priming) was “inhibited ATP-induced ROS production significantly”. The “ATP-induced ROS production” value (ROS; LPS-primed J774A.1, compound 30 min before ATP stimulation) was “reduces ATP-induced ROS production slightly”.
